Results: patent publication US10093627B2, “Tetrahydroquinoline derivatives and their use as Epac inhibitors” (Institut National de la Sante et de la Recherche Medicale …, priority 2012, dated 2018)

Key:
[1] = tested on: Iso-induced ANF-Luc transcriptional activation; assay: ANF-Luc transcriptional activation (Firefly luciferase assay) in rat neonatal cardiomyocytes; assay type: cell-based; details: CE3F4 20 μM, 30 min pretreatment; Iso 10 μM, 8 h; FIG. 4A
Experimental: ANF and NFAT promoters were fused to the Firefly luciferase gene (ANF-Luc) (NFAT-Luc) to detect ANF and NFAT by Firefly Luciferase assay (see Materiel and Methods).
Rat neonatal cardiomyocytes were cotransfected with ANF-Luc and Epac1 or empty vector pcDNA3 as control. One day after transfection, cells were pretreated or not with CE3F4 (20 μM) for 30 min and stimulated or not with Iso (10 μM) for 8 h. Cells were then assayed for Luciferase activity. B) Iso-induced NFAT-Luc Transcriptional Activation is Blocked by CE3F4: Neonatal cardiomyocytes were transfected with NFAT-Luc. One day later cells were pretreated or not with CE3F4 (20 μM) for 30 min and stimulated or not with Iso (10 μM) for 8 h. The day after, cells were assayed for Luciferase activity.
Results were normalized to control for each experiment, and were expressed as means±S.E.M of at 4 (FIG. 4A) or 5 (FIG. 4B) independent experiments performed in triplicates.
The rat ANF promoter fused to the Firefly luciferase reporter gene (ANF-Luc) by Dr K. Knowlton, Epac and Rap1 plasmid construct (Epac1^WT) by Drs J. L. Bos and J. de Gunzburg, respectively. The Firefly luciferase reporter plasmid driven by four NFAT consensus binding sites (NFAT-Luc) was purchased from Stratagene. […]
Cells were lysed, and luminescence was detected using the Luciferase Assay System (Promega) according to the manufacturer's instructions with Tecan Infinite.

Epac2(B) = molecular target: T1, Epac2(B) (Homo sapiens, UniProt Q8WZA2); assay: In vitro GEF activity (initial velocity of GDP exchange on Rap1A) of Epac2(B); assay type: biochemical
T1 construct: Human Epac2(B) (amino acids 283-1011) lacks the first 283 amino acids of Epac2; made in house; host or cells: Escherichia coli Rosetta 2(DE3)
T1 sequence (Q8WZA2 283-1011): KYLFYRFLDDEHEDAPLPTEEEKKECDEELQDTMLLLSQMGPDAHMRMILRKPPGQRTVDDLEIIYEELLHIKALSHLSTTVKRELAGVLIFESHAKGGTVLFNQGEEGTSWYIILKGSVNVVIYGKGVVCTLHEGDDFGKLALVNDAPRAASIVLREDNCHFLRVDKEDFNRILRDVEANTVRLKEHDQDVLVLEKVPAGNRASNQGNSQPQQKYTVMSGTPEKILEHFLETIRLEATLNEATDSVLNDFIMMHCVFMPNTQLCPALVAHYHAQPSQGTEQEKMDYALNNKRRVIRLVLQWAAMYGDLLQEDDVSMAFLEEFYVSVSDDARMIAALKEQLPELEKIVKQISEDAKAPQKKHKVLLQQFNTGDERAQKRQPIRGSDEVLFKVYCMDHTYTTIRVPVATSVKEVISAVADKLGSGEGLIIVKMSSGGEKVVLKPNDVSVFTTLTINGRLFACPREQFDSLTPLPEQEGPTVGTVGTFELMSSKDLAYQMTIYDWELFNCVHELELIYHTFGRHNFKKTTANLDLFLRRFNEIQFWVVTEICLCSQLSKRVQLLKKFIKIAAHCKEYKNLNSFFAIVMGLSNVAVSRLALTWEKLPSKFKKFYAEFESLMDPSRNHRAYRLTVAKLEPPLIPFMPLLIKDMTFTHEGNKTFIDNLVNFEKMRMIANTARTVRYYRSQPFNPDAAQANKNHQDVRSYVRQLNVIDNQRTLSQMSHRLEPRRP
Excerpt: Human Epac2(AB) (amino acids 43-1011) carries both the CNB-A and the CNB-B domains. Human Epac2(B) (amino acids 283-1011) lacks the first 283 amino acids of Epac2. It is therefore deleted of its CNB-A and DEP domains, but retains the CNB-B domain and the full catalytic region. Epac2(AB) was obtained by HindIII/NotI restriction and Epac2(B) was obtained by Ssp1/Not1 restriction of a human Epac2A cDNA (a gift from Ann M Graybiel, Department of Brain and Cognitive Sciences, MIT, Cambridge). Both cDNA fragments were inserted into pET41a (Novagen), expressed in Escherichia coli Rosetta 2(DE3) (Novagen), and the GST-tagged fusion proteins were purified by nickel-nitrilotriacetic acid beads (Qiagen), as described in D. Courilleau, et al., Identification of a tetrahydroquinoline analog as a pharmacological inhibitor of the cAMP-binding protein Epac, J. Biol. Chem. 287 (2012) 44192-44202).
In vitro GDP exchange catalyzed by Epac was measured using purified recombinant Epac isoforms and Rap1A loaded with Bodipy-GDP, as described in D. Courilleau, et al (above mentioned). The GEF activity of Epac proteins was initiated by injection of the agonist. Stock solutions of CE3F4 and its analogs (12 mM in 100% DMSO) were kept at −20° C. and were diluted in assay buffer (0.67% final DMSO concentration) just before use for GDP exchange assays. The release of Bodipy-GDP was measured in real time as the decay of fluorescence. A single exponential was fit to the time-course data using the Graphpad Prism program. The initial velocity (Vi) of GDP exchange on Rap1 was calculated as described in D. Courilleau et al.).
Data are expressed as mean±S.D. Differences in quantitative variables were examined by unpaired one- or two-tailed Student's t test. EC50 and IC50 values were computed according to a four-parameters dose-response model and compared on the basis of the extra sum-of square F test, using Graphpad Prism. Two-tailed Wilcoxon matched-pair signed rank tests were performed using GraphPad Prism.

CC1CCc2c(cc(Br)c(F)c2Br)N1C=O (racemic) [CE3F4]
Effect on Iso-induced ANF-Luc gene transcriptional activity [1]: significantly inhibited | Inhibitory effect on GEF activity of Epac2(B), compared with Epac2(AB) (Epac2(B); 50 μM racemic CE3F4, agonist 50 μM 007 or 300 μM cAMP, FIG. 6A): no significant difference | IC50 (Epac2(B); Epac2(B) activated by 300 μM cAMP): 66 µM | Antagonism of cAMP-activated Epac2(B) GEF activity (Epac2(B); compound 30 μM, 300 μM cAMP, FIG. 6C): stronger antagonist
